Legend:
[1] = tested on: Human Keratinocytes; assay: Glutathione assay (total glutathione after menadione challenge); assay type: cell-based
Description: Human Keratinocytes (Promocell, Heidelberg, Germany) were maintained in EpiLife® medium containing 60 uM calcium chloride and 1% Human Keratinocyte Growth Supplement (both media components from ThermoFisher Scientific) in a humidified incubator with an atmosphere containing 5% CO2 at 37° C. The medium was refreshed every 2-3 days. Subsequently, cells were trypsinized at 90% confluency and seeded at a density of 1×10^4 per well into 96-well plates with white wall and clear bottom. One or two days after seeding, cell medium was replaced with Hank's Balanced Salt Solution (HBSS), and keratinocytes were pre-treated with GAP (or 0.12-0.240 mM sodium hydroxide vehicle control, pH 7.5) alone or in combination with additional test reagents described above or L-cystine esters alone for 1-2 hours. The concentration of all amino acids constituting the GAP mixture used in this assay are designated in the data tables, and fully described in the abbreviations list below.
After one or two hours of pre-treatment with GAP or additional test reagents, alone or in combination, keratinocytes were then challenged with 25 uM menadione (Sigma-Aldrich), a known inducer of oxidative stress. After 18-20 hours, cells were harvested and analyzed for total glutathione levels using a commercially available kit (GSH-GSSG GLo Assay, Promega), a luminescence-based system for the detection and quantification of total glutathione in cultured cells. In summary, after cell treatment, the media was removed and replaced with a cell lysis reagent for 5 minutes at 20-25° C.; note, all remaining steps were also conducted at 20-25° C. Next, a luciferase generation reagent was added to each well and incubated for 30 minutes. Following this step, a luciferin detection reagent was added to each well and plates were incubated for 15 minutes. Finally, plates were then read for luminescence in a FlexStation 3 plate reader (Molecular Devices). Total glutathione levels were calculated after interpolation of glutathione concentrations from a standard curve. Experimental conditions were typically conducted in at least triplicate determinations. Statistical significance was calculated using 1-way ANOVA. Percent protection was calculated by using the calculated glutathione levels from each experiment in the following equation: […]

[2] = tested on: Human Keratinocytes; assay: Cell viability assay (CCK-8); assay type: cell-based; conditions: 18 hours; for viability at 20 µM / viability at 40 µM / viability at 80 µM / viability at 160 µM: Homo sapiens, Keratinocyte, read-out: Cell viability (% of vehicle control); for viability at 160 µM: 160 uM + menadione
Description: Human Keratinocytes (Promocell, Heidelberg, Germany) were maintained in EpiLife® keratinocyte medium containing 60 uM calcium chloride and 1% Human Keratinocyte Growth Supplement (HKGS). The medium was refreshed every other day. Subsequently, cells were trypsinized at 90% confluency and seeded at a density of 2×10^4 per well into 96-well transparent tissue culture plates. On the second day after seeding, cell medium was replaced with treatments as described above in ROS assay section. After 18 hours, […] (CCK-8) reagent (Dojindo, Kumamoto, Japan) was diluted 1:10 in HBSS and incubated with cells for 4 h at 37° C. in a humidified incubator. Optical absorption at 450 nm was measured using a Tecan Safire2 plate reader. Relative viability was calculated with normalization based on the vehicle control treatment, which was set to 100%.
Where indicated, percent protection was calculated as a comparison to menadione alone treatment, using the measured relative absorbance units in the following equation: […]

[3] = tested on: Human Keratinocytes; assay: Reactive Oxygen Species (ROS) assay; assay type: cell-based; conditions: 18 hours; for ROS % Protection (improvement vs. vehicle control + menadione) / activity at 20 µM: 20 uM + menadione; for activity at 20 µM / activity at 40 µM / activity at 80 µM / activity at 160 µM: Homo sapiens, Keratinocyte, read-out: ROS inhibition (% of vehicle control); for activity at 40 µM: 40 uM + menadione; for activity at 80 µM: 80 uM + menadione; for activity at 160 µM: 160 uM + menadione
Description: Human Keratinocytes (Promocell, Heidelberg, Germany) were maintained in EpiLife® keratinocyte medium containing 60 uM calcium chloride and 1% Human Keratinocyte Growth Supplement (HKGS) in a humidified incubator with an atmosphere containing 5% CO2 at 37° C. The medium was refreshed every other day. Subsequently, cells were trypsinized at 90% confluency and seeded at a density of 1-2×10^4 per well into 96-well plates with black wall and clear bottom. On the second day after seeding, cell medium was replaced with Hank's Balanced Salt Solution (HBSS) with or without menadione (10-25 uM), GAP, GAP vehicle (0.2 mM NaOH, pH 7.5), above-described additional test reagents, or combinations of GAP with additional test reagents or L-cystine esters alone, and incubated for additional 18 hours. For ROS detection, CellROX green (Life Tech, Thermo Fisher Scientific, Rockford, USA) reagent was added into each well to a final concentration of 15-25 uM and incubated for additional 2-4 hours at 37° C. in a humidified incubator. The ROS fluorescence was detected using a Tecan microplate reader (Excitation/Emission=490/525). Relative ROS production was calculated with normalization based on the vehicle control treatment which was set to 100%. Where indicated, percent protection was calculated as a comparison to menadione alone treatment, using the measured relative fluorescent units in the following equation: […]
ROS levels were evaluated together with cell viability because it is possible to get a false negative for ROS if treatment is so toxic, that at the time of assay, cells are dead (and there are no longer any detectable ROS). Decrease in ROS levels is meaningful if cells are still viable.

[4] = tested on: Human primary melanocytes; assay: Melanin content assay (melanin synthesis inhibition); assay type: cell-based; conditions: Melanocyte, 72 hours treatment
Description: Human primary melanocytes (Cascade Biologics, now ThermoFisher Scientific) were grown in melanocytes growth medium (MGM) with human melanocyte growth supplement (both media components from ThermoFisher Scientific). Melanocytes were seeded at 5×10^4 cells/well in 24 well-plates and incubated in a humidified incubator at 37° C. with 5% CO2 atmosphere. After 24 hours of incubation, cell cultures were treated with the GAP amino acids or 12- hydroxystearic acid, alone or in combination. The vehicle control consisted of cells treated with the vehicle GAP (0.002 mM NaOH), and/or additional test reagent vehicle, . After treatment, cells were again incubated for 72 hours in a humidified incubator at 37° C. with 5% CO2 atmosphere. At the end of the 72 hour incubation, the culture medium was replaced with 120 uL/well of melanin content assay reagent (10% DMSO in 1M sodium hydroxide) and incubated for 1 hour at 60° C. in a shaker incubator. The supernatant was then transferred to a 384 well plate. The absorbance was measured by spectrophotometric analysis at 405 nm with a micro plate reader (GEnios Pro, Tecan).
The spectrophotometric optical density at 405 nm for untreated cells (no active) was considered as 100% melanin content. Relative melanin content for treated samples was calculated with normalization based on the untreated (media/vehicle) control.

[5] = pH less than 2 or pH above 8; cited from earlier work

SMILES	Glutathione Synthesis, % Protection (improvement vs. vehicle control + menadione) ([1]; 40 uM + menadione)	Glutathione Synthesis, Mean (μm glutathione) ([1]; 40 uM + menadione)	Glutathione Synthesis, % Protection (improvement vs. vehicle control + menadione) ([1]; 80 uM + menadione)	viability at 20 µM ([2]; 20 uM + menadione) [%]	viability at 40 µM ([2]; 40 uM + menadione) [%]	viability at 80 µM ([2]; 80 uM + menadione) [%]	viability at 160 µM [2] [%]	ROS % Protection (improvement vs. vehicle control + menadione) [3]	activity at 20 µM [3] [%]	activity at 40 µM [3] [%]	activity at 80 µM [3] [%]	activity at 160 µM [3] [%]	further results
CC(C)(C)OC(=O)[C@@H](N)CSSC[C@H](N)C(=O)OC(C)(C)C.Cl.Cl [DTBC, Ditert-butyl L-cystinate dihydrochloride]	0^1%	0.17^1 μm	1^1%	78.1	75.9	73.6	104	2.2%	367	324	269	221	Glutathione Synthesis, Mean (μm glutathione) ([1]; 80 uM + menadione): 0.19^1 μm; Cell viability % protection (improvement vs. vehicle control + menadione) ([2]; 20 uM + menadione): 6.0^1%; Cell viability % protection (improvement vs. vehicle control + menadione) ([2]; 40 uM + menadione): 3.0^1%; Cell viability % protection (improvement vs. vehicle control + menadione) ([2]; 80 uM + menadione): −0.1^1%
CCCCCCC(O)CCCCCCCCCCC(=O)O (stereo not shown) [12-Hydroxystearic Acid, 12-hydroxystearic acid]	–	–	–	–	–	–	–	–	–	–	–	–	inhibition at 4 µM ([4]; 12-Hydroxystearic Acid 4 uM, alone or with GAP): 7%; inhibition at 8 µM ([4]; 12-Hydroxystearic Acid 8 uM, alone or with GAP): 10%
COC(=O)[C@@H](N)CSSC[C@H](N)C(=O)OC.Cl.Cl [CDME, L-Cystine dimethyl ester dihydrochloride]	–	–	31^1,2%	90.9	93.1	87	106	–	108	111	114	97.9	–
CCOC(=O)[C@@H](N)CSSC[C@H](N)C(=O)OCC.Cl.Cl [DEC, Diethyl L-cystinate dihydrochloride]	13^1,2%	0.54^1,2 μm	–	110	127	132	122	38.0^1,2%	233	212	234	254	–
N[C@@H](CSSC[C@H](N)C(=O)O)C(=O)O [cystine]	–	–	–	–	–	–	–	–	–	–	–	–	solubility in aqueous solutions [5]: more soluble
CCCCCCc1ccc(O)cc1O [HR, 4-hexylresorcinol, reference compound]	–	–	–	–	–	–	–	–	–	–	–	–	inhibition at 10 µM ([4]; 10 uM): 39%

Reference: patent US20200009034A1, “TOPICAL SKIN LIGHTENING ADDITIVE AND COMPOSITION WITH AMINO ACIDS AND PPAR ACTIVATING FATTY ACIDS” (Conopco, Inc., d/b/a UNILEVER, priority 2017, published 2020)
